Measurements published in US6613317B1, “Volatile attractants for diabrotica species” (priority 1988, dated 2003).
Marks after values point to notes of the source that are not given here.

How the values were obtained:
[1] = system: northern corn rootworm (NCR); assay: Sticky trap attraction in corn, phenylethanol analogues (Example 6); format: in vivo, Diabrotica barberi; settings: four replicates; for Mean number of NCR per trap (± standard deviation): Table 20, 100 mg per trap, 24 hour
Description: (§1) Test chemicals (purchased from Aldrich Chemical Co.; Milwaukee, Wis.) were applied by capillary micropipettes to cotton dental wicks that were attached to tops of 1.0 liter cylindrical paper cartons covered with TangleTrap™, Grand Rapids, Mich. The trapping techniques used were as previously described in Example 1. Unless otherwise indicated, all treatments were made at a dosage of 100 mg or 100 μL of attractant per trap. Control traps had untreated wicks. Four replicates of treated and untreated traps were positioned randomly 10 meters apart on top of 1 m high posts along the edges of 25-50 ha. fields of hybrid corn (Zea mays), infested with adult NCR, SCR, and WCR beetles. Several experiments detailed in the Tables were made in a 0.4 ha plot of sweet corn (Illini X-tra Sweet).
(§2) Attraction of Diabrotica species adults of the sticky traps was measured by the mean number of beetles caught after 1 day (ca. 24 hours) exposure. The significance of the treatments was determined by analysis of variance and the individual means were separated by Duncan's multiple range test (Statistical Package for the Social Sciences, Nie, et al., 2nd. ed. McGraw-Hill, New York (1975). The data was logarithmically transformed for statistical analysis. Means and standard deviations are presented for the untransformed data. Significance levels were set at P=0.05 for all statistical analyses.

[2] = system: western corn rootworm (WCR) adults; assay: Sticky trap attraction in corn, estragole analogues (Example 3); format: in vivo, Diabrotica virgifera virgifera; settings: 100 mg per trap; for Mean number of WCR per sticky trap (±standard deviation) after 24 hours / Mean number of WCR adults per sticky trap (±standard deviation) after 24 hours: n = 4
Description: as §1, with “chemicals” for “chemicals (purchased from Aldrich Chemical Co.; Milwaukee, Wis.)”, “Cinnamyl alcohol, 4-methoxycinnamaldehyde, cinnamyl acetate, and 4-(4′methoxyphenyl)-3-butene-2-one which are solids at ambient temperature were prepared as standard w/v solutions in acetone prior to dosing the cotton wicks. All” for “Unless otherwise indicated, all”
as §2

[3] = system: southern corn rootworm (SCR) adults; assay: as above; format: in vivo, Diabrotica undecimpunctata howardi; settings: 100 mg per trap, n = 4
Description: as §1, with “chemicals” for “chemicals (purchased from Aldrich Chemical Co.; Milwaukee, Wis.)”, “Cinnamyl alcohol, 4-methoxycinnamaldehyde, cinnamyl acetate, and 4-(4′methoxyphenyl)-3-butene-2-one which are solids at ambient temperature were prepared as standard w/v solutions in acetone prior to dosing the cotton wicks. All” for “Unless otherwise indicated, all”
as §2

[4] = system: southern corn rootworm (SCR) adults; assay: Sticky trap attraction in sweet corn plots (Example 1); format: in vivo, Diabrotica undecimpunctata howardi; settings: August first year, single compounds 100 mg per trap
Description: (§3) The attraction of Diabrotica species to single-component and multicomponent lures was evaluated in corn fields. The field experiments on attraction of SCR and WCR adults were conducted in 0.405-ha (1-acre) plots of “Illini Xtra Sweet” corn grown on the University of Illinois South Farms at Urbana, Ill., over a two year period. Most of the tests were conducted in August to correspond with the peak silk-feeding and oviposition periods of corn rootworm adults in central Illinois. In both years, the sweet corn plot was adjacent to a 0.405-ha trap crop of C. maxima cultivar “Blue Hubbard”, to provide high densitites of SCR and WCR adults in the corn plots (Howe, et al., Environ. Entomol., 5:745-751 (1976), Lampman, et al., J. Chem. Ecol., 13:959-975 (1987).
(§4) Attraction of Diabrotica species to volatile compounds was measured by the average number of beetles cought during a 24-h period on 1.0-liter cylindrical paper cartons (15.2 cm high, 27.9 cm circumference) which were evenly coated with clear insect adhesive, TangleTrap™ (Tanglefood Co., Grand Rapids, Mich.) The candidate attractants were applied by capillary micropiettes to cotton dental wicks (13 mm long by 6 mm diameter) that were previously impregnated with mineral oil to prolong volatilization. The chemicals were purchased from Aldrich Chemical Co., (Milwaukee, Wis.) and assayed by gas chromatography as >97% pure. Indole, a solid at ambient temperatures (m.p. 52-54° C.), was dissolved in glass-distilled acetone before dosing the cotton wicks. For dosage-acticity tests, the various components were mixed in equal quantities by weight and diluted to the appropriate dosage with acetone. Treated and untreated (control) wicks were attached to the top of the paper cartons with TangleTrap™ and the inverted traps were placed on 1-m-high posts between the sweet corn rows. Four replicates of each treatment and a control were conducted in a randomized complete block desgin. The sticky traps within a block (ca. 50-m row of corn) were 5-10 m apart (depending on the number of treatments in a particular test) and the blocks were 3 m apart. The traps were baited and placed in the field between 1000 and 1300 hours and beetle counts were taken after 24 h. The significance of treatments was determined by analysis of variance and the individual means were separated by Duncan's multiple range test (Statistical Package for Social Sciences (SPSS) (Nie, et al., SPSS: statistical package for the social sciences, 2nd ed. McGraw-Hill, N.Y. (1975)). Student's t test was used for comparisons of two means (Sokal, et al., Biometry, Freeman, San Francisco (1969). Significance levels were set at P=0.05 at all statistical analyses.
(§5) The initial field test in August of the first year evaluated the response of SCR and WCR adults of a mixture of veratrole (V), indole (I), phenylacetaldehyde (P), trans-anethole (A), and eugenol (E) (=VIPAE mixture), as well as to the individual components. Each component in the VIPAE mixture was present at a dosage of 20 mg per trap and was compared with the individual components at 100 mg per trap. The response of SCR and WCR adults to a range of VIPAE doses, 1-300 mg, was conducted on the following day. Fifty SCR adults were removed from each 100-mg VIPAE trap, and returned to the laboratory for sex determination. Additional analyses in August evaluated the reduction in trap catches produced by the sequential removal of the individual components from the VIPAE lure. After the primary components of the initial lure were determined, a modified multicomponent lure consisting of veratrole, indole, and phenylacetaldehyde (=VIP mixture) was compared with its individual components to determine whether the attraction of SCR adults was the result of interactive or additive factors. The attraction and synergistic response of SCR adults of the VIP mixture was verified by tests conducted in August of the following year. […]

[5] = system: western corn rootworm (WCR) adults; assay: as above; format: in vivo, Diabrotica virgifera virgifera; settings: August first year, single compounds 100 mg per trap
Description: as §3, §4, §5

[6] = South Farms, 24 h, mixture 20 mg of each component, n = 4

## COc1ccc(CCN)cc1 [4-methoxyphenylethylamine]
[1]
  Mean number of NCR per trap (± standard deviation): 24.2 ± 15.4a per trap

## NCCCCc1ccccc1 [phenylbutylamine]
[1]
  Mean number of NCR per trap (± standard deviation): 12.2 ± 6.1a per trap

## COCc1ccc(OC)cc1 [V, 4-methoxy benzyl methyl ether]
[2]; August 29
  Relative percent activity as compared with the highest mean in the column (WCR): 32%
  Mean number of WCR per sticky trap (±standard deviation) after 24 hours: 46.7 ± 29.6 per sticky trap
[2]; July 30
  Relative percent activity as compared with the highest mean in the column (WCR): 46%
  Mean number of WCR per sticky trap (±standard deviation) after 24 hours: 37.7 ± 23.4 per sticky trap

## NCc1ccccc1 [benzylamine]
[1]
  Mean number of NCR per trap (± standard deviation): 57.5 ± 29.6b* per trap

## COc1ccc(C=CC(C)=O)cc1 [XVI, 4-(4′-methoxyphenyl)-3-butene-2-one]
[2]; September 11
  Mean number of WCR adults per sticky trap (±standard deviation) after 24 hours: 2.0 ± 3.7^a per sticky trap
[3]; September 11
  Mean number of SCR adults per sticky trap (±standard deviation) after 24 hours: 1.0 ± 0.8^a per sticky trap

## CC(=O)C=Cc1ccccc1 [XVII, phenyl-3-butone-2-one ketone]
[2]; September 11
  Mean number of WCR adults per sticky trap (±standard deviation) after 24 hours: 0.0 per sticky trap
[3]; September 11
  Mean number of SCR adults per sticky trap (±standard deviation) after 24 hours: 5.0 ± 3.7^b per sticky trap

## COc1ccc(CC#N)cc1 [VII, 4-methoxyphenyl acetonitrile]
[2]; August 29
  Relative percent activity as compared with the highest mean in the column (WCR): 78%
  Mean number of WCR per sticky trap (±standard deviation) after 24 hours: 114.5 ± 83.4 per sticky trap
[2]; July 30
  Relative percent activity as compared with the highest mean in the column (WCR): 46%
  Mean number of WCR per sticky trap (±standard deviation) after 24 hours: 37.5 ± 8.4 per sticky trap

## CC=Cc1cccc(OC)c1 [II, 4-methoxy-2-propenylbenzene]
[4]; [6]
  Mean number of SCR per trap (±standard deviation): 1.5 ± 1.0 per trap
[4]; mixture 20 mg each component
  relative percent activity of the mean SCR trap catch as compared with the highest mean value in the column: 7%
[5]; [6]
  Mean number of WCR per trap (±standard deviation): 9.0 ± 4.3 per trap
[5]; mixture 20 mg each component
  relative percent activity of the mean WCR trap catch as compared with the highest mean value in the column: 100%
[2]; July 30
  Relative percent activity as compared with the highest mean in the column (WCR): 58%
  Mean number of WCR per sticky trap (±standard deviation) after 24 hours: 48.0 ± 23.3 per sticky trap

## CCCc1ccc(OC)cc1 [IV, 4-methoxy-1-propylbenzene]
[2]; July 30
  Relative percent activity as compared with the highest mean in the column (WCR): 37%
  Mean number of WCR per sticky trap (±standard deviation) after 24 hours: 30.5 ± 11.0 per sticky trap

## COc1ccccc1C=CC=O [XIII, 2-methoxycinnamaldehyde]
[2]; August 4 second year
  Mean number of WCR adults per sticky trap (±standard deviation) after 24 hours: 53.0 ± 14.7^c per sticky trap
[3]; August 4 second year
  Mean number of SCR adults per sticky trap (±standard deviation) after 24 hours: 12.2 ± 9.9^b per sticky trap

## C=Cc1ccc(OC)cc1 [III, 4-methoxy-1-vinyl benzene]
[2]; August 29
  Relative percent activity as compared with the highest mean in the column (WCR): 15%
  Mean number of WCR per sticky trap (±standard deviation) after 24 hours: 21.5 ± 6.5 per sticky trap
[2]; July 30
  Relative percent activity as compared with the highest mean in the column (WCR): 40%
  Mean number of WCR per sticky trap (±standard deviation) after 24 hours: 32.2 ± 13.5 per sticky trap

## NCCc1ccccc1 [phenylethylamine]
[1]
  Mean number of NCR per trap (± standard deviation): 206.7 ± 32.3d per trap
[1]; day 1 after single 100 mg dosage on cotton wick
  Mean number (control subtracted) of NCR per trap: 85.9 per trap
[1]; day 2 after single 100 mg dosage on cotton wick
  Mean number (control subtracted) of NCR per trap: 125.3 per trap
[1]; day 3 after single 100 mg dosage on cotton wick
  Mean number (control subtracted) of NCR per trap: 39.4 per trap
[1]; day 4 after single 100 mg dosage on cotton wick
  Mean number (control subtracted) of NCR per trap: 27.5 per trap
[1]; day 5 after single 100 mg dosage on cotton wick
  Mean number (control subtracted) of NCR per trap: 155.4 per trap
[1]; day 6 after single 100 mg dosage on cotton wick
  Mean number (control subtracted) of NCR per trap: 44.2 per trap
[1]; day 7 after single 100 mg dosage on cotton wick
  Mean number (control subtracted) of NCR per trap: 38.4 per trap
[1]; day 8 after single 100 mg dosage on cotton wick
  Mean number (control subtracted) of NCR per trap: 17.5 per trap
[1]; day 11 after single 100 mg dosage on cotton wick
  Mean number (control subtracted) of NCR per trap: 3.8 per trap

## NCCCc1ccccc1 [phenylpropylamine]
[1]
  Mean number of NCR per trap (± standard deviation): 131.5 ± 16.5c per trap

## COc1ccc(C=CC#N)cc1 [IX, 4-methoxycinnamonitrile]
[2]; August 4 second year
  Mean number of WCR adults per sticky trap (±standard deviation) after 24 hours: 196.0 ± 145.3^de per sticky trap
[2]; August 5 first year
  Mean number of WCR adults per sticky trap (±standard deviation) after 24 hours: 59.0 ± 32.1^d per sticky trap
[3]; August 4 second year
  Mean number of SCR adults per sticky trap (±standard deviation) after 24 hours: 4.0 ± 2.2^ab per sticky trap
[3]; August 5 first year
  Mean number of SCR adults per sticky trap (±standard deviation) after 24 hours: 6.5 ± 3.0^a per sticky trap

## C=CCc1ccccc1 [VIII, allylbenzene]
[2]; August 4 second year
  Mean number of WCR adults per sticky trap (±standard deviation) after 24 hours: 10.0 ± 1.4^a per sticky trap
[2]; August 5 first year
  Mean number of WCR adults per sticky trap (±standard deviation) after 24 hours: 1.0 ± 0.8^a per sticky trap
[3]; August 4 second year
  Mean number of SCR adults per sticky trap (±standard deviation) after 24 hours: 12.4 ± 7.2^b per sticky trap
[3]; August 5 first year
  Mean number of SCR adults per sticky trap (±standard deviation) after 24 hours: 24.7 ± 16.9^a per sticky trap
